Key:
[1] = tested on: Aβ generation in HEK293 APP695 cells; assay: Aβ1-40 and Aβ1-42 ELISA of culture supernatants after siRNA transfection of HEK293 APP695 cells; format: cell-based; conditions: HEK293 APP695 cells co-transfected with human GPR3 plasmid, 20 μg siRNA
From the text: FIGS. 1A and 1B: Effect of siRNA-mediated β-arrestin depletion on Aβ1-40 (FIG. 1A) and Aβ1-42 (FIG. 1B) generation in HEK293 APP695 cells. Cells were transfected with pcDNA or GPR3, and siRNA targeting β-arrestin 1, 2, both, or a non-silencing (control) RNA duplex prior to measurement of Aβ1-40 (FIG. 1A) and Aβ1-42 (FIG. 1B) secretion in cell culture supernatants by ELISA. The results are expressed as the mean percentage ±SD of three independent experiments performed in duplicate relative to non-silencing siRNA (control).
Chemically synthesized, double-stranded siRNAs targeting β-arrestin 1 or 2 with 19-nucleotide duplex RNA and 2-nucleotide 3′-dTdT overhangs containing fluorescent tags to determine transfection efficiency were purchased from Qiagen. The sequences of the siRNA have been previously described (Ahn et al. 2003; 2004; see also Table 1). As a control, non-silencing siRNA with the sequence 5′-[…]-3′ (SEQ ID NO:10) was used in the experiment. […]
To directly determine the requirement of β-arrestin 1 or 2 for constitutive and GPR3-mediated Aβ generation, Aβ levels were measured in HEK293 APP695 cells following transfection with siRNA that specifically targets either β-arrestin 1 or 2 or both. β-arrestin 2 siRNA reduced constitutive Aβ1-40 and Aβ1-42 generation. […]

[2] = tested on: β-arrestin 2 recruitment to GPR3; assay: PathHunter β-arrestin assay after siRNA transfection of the CHO GPR3 β-arrestin 2 cell line; format: cell-based, Chinese hamster; conditions: PathHunter CHO GPR3 β-arrestin 2 cells, 20 μg siRNA, FIG. 5
From the text: A modified β-galactosidase complementation assay, referred to as PathHunter™ technology, is another preferred assay method (Olson and Eglen 2007). The principle of the assay is the detection of an interaction between GPR3 and β-arrestin following receptor activation. The assay is unique because it provides a direct measure of β-arrestin binding, whereas imaging assays detect the movement of β-arrestin. […] The assay makes use of a low affinity peptide derived from the amino-terminus of Escherichia coli β-galactosidase, which is tethered to the carboxy-terminus of GPR3 (ProLink™ tag), and a w-deletion mutant of β-galactosidase, which is fused to β-arrestin (enzyme acceptor or EA). The use of the low-affinity ProLink™ peptide ensures that the enzyme fragment complementation (EFC) reaction is driven by the receptor-stimulated, reversible interaction of GPR3 with β-arrestin and not by β-galactosidase complementation in the absence of receptor stimulation. Thus, complementation between β-arrestin and GPR3 results in the formation of a functional enzyme that is capable of hydrolyzing a substrate and generating a chemiluminescent signal. Given the finding that β-arrestin modulates Aβ release, the PathHunter™ β-arrestin assay would facilitate the identification of potential allosteric modulators of Aβ generation. […]

[3] = tested on: Aβ generation in CHO/β-arrestin 2/GPR3 cells; assay: Aβ1-40 and Aβ1-42 ELISA of culture supernatants after siRNA transfection of CHO/β-arrestin 2/GPR3 cells; format: cell-based, Chinese hamster; conditions: 20 μg siRNA, FIG. 6
From the text: Chemically synthesized, double-stranded siRNAs targeting β-arrestin 1 or 2 with 19-nucleotide duplex RNA and 2-nucleotide 3′-dTdT overhangs containing fluorescent tags to determine transfection efficiency were purchased from Qiagen. The sequences of the siRNA have been previously described (Aim et al. 2003; 2004; see also Table 1). As a control, non-silencing siRNA with the sequence 5′-[…]-3′ (SEQ ID NO:10) was used in the experiment. The PathHunter™ Chinese hamster ovary (CHO) GPR3 β-arrestin 2 cell line, which stably expresses GPR3 and β-arrestin 2, was transfected with 20 μg of siRNA using the GeneSilencer Transfection reagent (Genlantis) as previously described by Aim et al. (2003). Forty-eight hours following transfection, cells were divided into six-well and 96-well plates for further experiments. Twenty-four hours after plating, cells were placed in serum-free medium for an additional 24 hours. The PathHunter™ β-arrestin assay was performed on the cells in the 96-well plate to determine the extent of β-arrestin 2 recruitment to GPR3 following a reduction in the expression of β-arrestin 1 or β-arrestin 2.
Culture supernatant samples were collected from cells seeded in the six-well plates to determine the effect of a reduction in β-arrestin 2 recruitment to GPR3 on Aβ1-40 and Aβ1-42 generation. […]

For “5′-AAAGCCUUCUGCGCGGAGAAU-3′ [β-arrestin 1 siRNA]”, the “Aβ1-40 generation with GPR3 co-transfection” value ([1]; FIG. 1A) was “further reduction”, the “Aβ1-42 generation with GPR3 co-transfection” value ([1]; FIG. 1B) was “further reduction” and the “β-arrestin 2 recruitment to GPR3 (chemiluminescent signal)” value [2] was “clear increase”. The Aβ1-40 generation [3] was “did not affect” and the Aβ1-42 generation [3] was “modestly stimulated”.

— US8580493B2, “Screening for compounds that modulate GPR3-mediated beta-arrestin signaling and amyloid beta peptide generation” (VIB VZW, priority 2009, dated 2013)
